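Method: 48-hour compound exposure of cells in 96-well plates, five concentrations, linear interpolation of endpoints. Abbreviation: GI50, concentration required for 50% inhibition of growth.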 Calls of active or inactive are those of the source. Rule as the data show it: active = GI50 up to about 1.1 µM and inactive = higher.
Assays:
Assay in all cases: NCI tumour cell line growth inhibition, 48 h
KM12 = tested on: KM12
NCI/ADR-RES = tested on: NCI/ADR-RES
MOLT-4 = tested on: MOLT-4
LOX IMVI = tested on: LOX IMVI
SK-MEL-2 = tested on: SK-MEL-2
MDA-MB-231 = tested on: MDA-MB-231
MDA-N = tested on: MDA-N
PC-3 = tested on: PC-3
T47D = tested on: T47D
HL-60 = tested on: HL-60
ACHN = tested on: ACHN
SN12C = tested on: SN12C
EKVX = tested on: EKVX
MDA-MB-435 = tested on: MDA-MB-435
UACC-62 = tested on: UACC-62
OVCAR-4 = tested on: OVCAR-4
MCF7 = tested on: MCF7
HOP-62 = tested on: HOP-62
K562 = tested on: K562
OVCAR-3 = tested on: OVCAR-3
NCI-H522 = tested on: NCI-H522
NCI-H460 = tested on: NCI-H460
RPMI-8226 = tested on: RPMI-8226
CCRF-CEM = tested on: CCRF-CEM
SF-539 = tested on: SF-539
CAKI-1 = tested on: CAKI-1
A549 = tested on: A549
A498 = tested on: A498
OVCAR-5 = tested on: OVCAR-5
OVCAR-8 = tested on: OVCAR-8
RXF 393 = tested on: RXF 393
SF-295 = tested on: SF-295
SK-MEL-5 = tested on: SK-MEL-5
SNB-75 = tested on: SNB-75
HCT-116 = tested on: HCT-116
IGROV-1 = tested on: IGROV-1
Hs-578T = tested on: Hs-578T
HCT-15 = tested on: HCT-15
NCI-H23 = tested on: NCI-H23
SK-MEL-28 = tested on: SK-MEL-28
Malme-3M = tested on: Malme-3M
HCC 2998 = tested on: HCC 2998
DU-145 = tested on: DU-145
SK-OV-3 = tested on: SK-OV-3
SW-620 = tested on: SW-620
COLO 205 = tested on: COLO 205
SNB-19 = tested on: SNB-19
SR = tested on: SR
M14 = tested on: M14
TK-10 = tested on: TK-10
U-251 = tested on: U-251
UO-31 = tested on: UO-31
SF-268 = tested on: SF-268
NCI-H226 = tested on: NCI-H226
HT-29 = tested on: HT-29
UACC-257 = tested on: UACC-257
786-0 = tested on: 786-0

In the case of `O=Cc1cn(CCCCCCCCn2cc(C=O)c3ccccc32)c2ccccc12`, the GI50 (KM12) is reported as > 10 µM (inactive), the GI50 (NCI/ADR-RES) is reported as 5.15 µM (inactive) and the GI50 (MOLT-4) is reported as 6.37 µM (inactive). For the same molecule, the GI50 (LOX IMVI) was 7.57 µM (inactive), the GI50 (SK-MEL-2) was > 10 µM (inactive) and the GI50 (MDA-MB-231) was > 10 µM (inactive). The GI50 (MDA-N) was > 10 µM (inactive), the GI50 (PC-3) was 4.22 µM (inactive) and the GI50 (T47D) was 3.91 µM (inactive). For the same molecule, the GI50 (HL-60) was 5.46 µM (inactive), the GI50 (ACHN) was > 10 µM (inactive) and the GI50 (SN12C) was > 10 µM (inactive). The GI50 (EKVX) was > 10 µM (inactive), the GI50 (MDA-MB-435) was > 10 µM (inactive) and the GI50 (UACC-62) was > 10 µM (inactive). For the same molecule, the GI50 (OVCAR-4) was > 10 µM (inactive), the GI50 (MCF7) was 7.13 µM (inactive) and the GI50 (HOP-62) was > 10 µM (inactive). For the same molecule, the GI50 (K562) was 3.27 µM (inactive), the GI50 (OVCAR-3) was > 10 µM (inactive) and the GI50 (NCI-H522) was > 10 µM (inactive). For the same molecule, the GI50 (NCI-H460) was 0.561 µM (active), the GI50 (RPMI-8226) was 3.96 µM (inactive) and the GI50 (CCRF-CEM) was > 10 µM (inactive). For the same molecule, the GI50 (SF-539) was > 10 µM (inactive), the GI50 (CAKI-1) was > 10 µM (inactive) and the GI50 (A549) was 6.59 µM (inactive). The GI50 (A498) was 1.63 µM (inactive), the GI50 (OVCAR-5) was 8.79 µM (inactive) and the GI50 (OVCAR-8) was > 10 µM (inactive). The GI50 (RXF 393) was > 10 µM (inactive), the GI50 (SF-295) was 6.41 µM (inactive) and the GI50 (SK-MEL-5) was 4.17 µM (inactive). The GI50 (SNB-75) was 5.6 µM (inactive), the GI50 (HCT-116) was 7.4 µM (inactive) and the GI50 (IGROV-1) was > 10 µM (inactive). The GI50 (Hs-578T) was 6.49 µM (inactive), the GI50 (HCT-15) was > 10 µM and the GI50 (NCI-H23) was 2.19 µM (inactive). For the same molecule, the GI50 (SK-MEL-28) was > 10 µM (inactive), the GI50 (Malme-3M) was > 10 µM (inactive) and the GI50 (HCC 2998) was > 10 µM (inactive). The GI50 (DU-145) was 8.05 µM (inactive), the GI50 (SK-OV-3) was > 10 µM (inactive) and the GI50 (SW-620) was > 10 µM (inactive). The GI50 (COLO 205) was > 10 µM (inactive), the GI50 (SNB-19) was > 10 µM (inactive) and the GI50 (SR) was 9.57 µM (inactive). The GI50 (M14) was > 10 µM (inactive), the GI50 (TK-10) was > 10 µM (inactive) and the GI50 (U-251) was > 10 µM (inactive). The GI50 (UO-31) was > 10 µM (inactive), the GI50 (SF-268) was > 10 µM (inactive) and the GI50 (NCI-H226) was 8.24 µM (inactive). For the same molecule, the GI50 (HT-29) was > 10 µM (inactive).

In the case of `C#CCOCn1ccc(=O)[nH]c1=O`, the GI50 (KM12) is reported as > 100 µM (inactive), the GI50 (NCI/ADR-RES) is reported as > 100 µM (inactive) and the GI50 (MOLT-4) is reported as > 100 µM (inactive). The GI50 (LOX IMVI) was > 100 µM (inactive), the GI50 (SK-MEL-2) was > 100 µM (inactive) and the GI50 (MDA-MB-231) was > 100 µM (inactive). The GI50 (MDA-N) was > 100 µM (inactive), the GI50 (PC-3) was > 100 µM (inactive) and the GI50 (T47D) was > 100 µM (inactive). The GI50 (HL-60) was > 100 µM (inactive), the GI50 (ACHN) was > 100 µM (inactive) and the GI50 (SN12C) was > 100 µM (inactive). For the same molecule, the GI50 (EKVX) was > 100 µM (inactive), the GI50 (MDA-MB-435) was > 100 µM (inactive) and the GI50 (UACC-62) was > 100 µM (inactive). For the same molecule, the GI50 (OVCAR-4) was > 100 µM (inactive), the GI50 (MCF7) was > 100 µM (inactive) and the GI50 (HOP-62) was > 100 µM (inactive). The GI50 (K562) was > 100 µM (inactive), the GI50 (NCI-H460) was > 100 µM (inactive) and the GI50 (RPMI-8226) was > 100 µM (inactive). The GI50 (CCRF-CEM) was > 100 µM (inactive), the GI50 (SF-539) was > 100 µM (inactive) and the GI50 (CAKI-1) was > 100 µM (inactive). For the same molecule, the GI50 (A549) was > 100 µM (inactive), the GI50 (A498) was > 100 µM (inactive) and the GI50 (OVCAR-5) was > 100 µM (inactive). The GI50 (OVCAR-8) was > 100 µM (inactive), the GI50 (SF-295) was > 100 µM (inactive) and the GI50 (SK-MEL-5) was > 100 µM (inactive). For the same molecule, the GI50 (SNB-75) was > 100 µM (inactive), the GI50 (HCT-116) was > 100 µM (inactive) and the GI50 (IGROV-1) was > 100 µM (inactive). For the same molecule, the GI50 (UACC-257) was > 100 µM (inactive), the GI50 (Hs-578T) was > 100 µM (inactive) and the GI50 (HCT-15) was > 100 µM. For the same molecule, the GI50 (NCI-H23) was > 100 µM (inactive), the GI50 (SK-MEL-28) was > 100 µM (inactive) and the GI50 (Malme-3M) was > 100 µM (inactive). For the same molecule, the GI50 (HCC 2998) was > 100 µM (inactive), the GI50 (DU-145) was > 100 µM (inactive) and the GI50 (SK-OV-3) was > 100 µM (inactive). The GI50 (SW-620) was > 100 µM (inactive), the GI50 (COLO 205) was > 100 µM (inactive) and the GI50 (SNB-19) was > 100 µM (inactive). For the same molecule, the GI50 (SR) was > 100 µM (inactive), the GI50 (M14) was > 100 µM (inactive) and the GI50 (786-0) was > 100 µM (inactive). The GI50 (TK-10) was > 100 µM (inactive), the GI50 (U-251) was > 100 µM (inactive) and the GI50 (UO-31) was > 100 µM (inactive). For the same molecule, the GI50 (SF-268) was > 100 µM (inactive), the GI50 (NCI-H226) was > 100 µM (inactive) and the GI50 (HT-29) was > 100 µM (inactive).

— ChEMBL document CHEMBL1201862, “PubChem BioAssay data set” (2004)
